Measurements published in patent US9907760B2 (LIBRAGEN, priority 2010, dated 2018).
Marks after values point to notes of the source that are not given here.

Tested on: normal human keratinocytes
Assay: Hyaluronic acid production by normal human keratinocytes (HA-ELISA of supernatant)
Type: cell-based
Details: for % stimulation of hyaluronic acid synthesis: vs Control
Protocol: Normal human keratinocytes were cultured to confluence. Cells were treated with the test products for 48 hours. The supernatants, containing hyaluronic acid, were collected and assayed immediately. Hyaluronic acid was quantified with an ELISA microtiter plate.
Primocultures of normal human keratinocytes (NHK) were obtained from cells isolated from skin specimens from plastic surgery.
NHK were seeded at a density of 130,000 cells/well in specific KSFM culture medium (Gibco®, Invitrogen) in a 24-well plate. The plate was placed in a humid incubator (37° C., 5% CO2) for 24 hours.
The different products at the respective concentrations (diluted in KSFM medium, 600 μl) were contacted with the cells for 48 hours. Untreated cells were used as the control condition.
Each treatment condition was evaluated on three wells of NHK cells.
After 24 hours of treatment, an intermediate sample of […] of supernatant was removed from each well and the plate returned to the incubator (37° C., 5% CO2).
After 48 hours of treatment, the remaining supernatant (≈350 μA) was collected and centrifuged.
Cell supernatants were assayed according to the method described in the Hyaluronan Enzyme-Linked Immunosorbent Assay kit (HA-ELISA, Echelon Biosciences Inc.). This is an ELISA assay with spectrophotometric detection at 405 nm (Safire, Tecan).
The assay was performed in duplicate for each well.
Optical densities (OD) measured on each sample were plotted on a graph (specific standard curve in the kit). The hyaluronic acid concentration was expressed in ng/ml.
The amount of hyaluronic acid released by the cells was determined for each well and for each treatment condition, relative to the cell content expressed as μg of protein. Thus, the final result was expressed as ng/ml of hyaluronic acid per μg of protein.
A mean value was calculated for wells treated with the same concentration of test product. This mean was compared with the mean of the control wells (Student t test−comparison of means−significant difference at 95% if p<0.05* and at 99% if p<0.01*).
The percent stimulation induced by the test products was determined by comparing the mean values of the control and treatment conditions: % Stimulation=(Treated−Control)/Control
The vitamin A propionate was dissolved in DMSO.

With CC(=O)N[C@H]1C(O)O[C@H](COP(=O)(O)O)[C@@H](O)[C@@H]1O (some centres unmarked) [NAG6P, N-acetylglucosamine-6-phosphate] as the molecule, how does the “Hyaluronic acid” value (5 mM, 48 hrs) read?
The value was 1817.9 ± 145.1 ng/mL.

And the “Hyaluronic acid (ng/ml/μg prot.)” value (5 mM, 48 hrs)?
The value was 122.1 ± 25.6 ng/ml/μg prot.

And the “% stimulation of hyaluronic acid synthesis” value (“% stimulation” for short) (5 mM, 48 hrs)?
Its value is 73%*.

What about the “Hyaluronic acid” value (10 mM, 24 hrs) of the same molecule?
The value was 1067.3 ± 111.9 ng/mL.

And the “% stimulation” value (10 mM, 24 hrs)?
The value was 35%*.

What about the “% stimulation” value (10 mM, 24 hrs, listed as N-acetylglucosamine-6-phosphate) of the same molecule?
Its value is 35%.

What about the “Hyaluronic acid” value (10 mM, 48 hrs) of the same molecule?
Its value is 2503.2 ± 552.8 ng/mL.

And the “Hyaluronic acid (ng/ml/μg prot.)” value (10 mM, 48 hrs)?
The value was 165.7 ± 32.4 ng/ml/μg prot.

And the “% stimulation” value (10 mM, 48 hrs)?
Its value is 135%**.

What about the “% stimulation” value (10 mM, 48 hrs, listed as N-acetylglucosamine-6-phosphate) of the same molecule?
The value was 135%.

And the “Hyaluronic acid” value (20 mM, 48 hrs)?
Its value is 3076 ± 260.8 ng/mL.

What about the “Hyaluronic acid (ng/ml/μg prot.)” value (20 mM, 48 hrs) of the same molecule?
The value was 269.6 ± 55.3 ng/ml/μg prot.

What about the “% stimulation” value (20 mM, 48 hrs) of the same molecule?
The value was 282%**.

What about the “% stimulation” value (20 mM, 48 hrs, listed as N-acetylglucosamine-6-phosphate) of the same molecule?
Its value is 282%.
